In article PMC9516332 (Frontiers in Oncology, 2022):
Like-named read-outs stand apart in the source and are kept apart here.

Tested on: 134 cancer cell lines
Assay: Cell viability assay (ATPlite, 72 hours), IC50 on cancer cell line panel

## CCN1C(=O)N(c2c(F)c(OC)cc(OC)c2F)Cc2cnc3[nH]c(CN4CCOCC4)cc3c21 [pemigatinib]
Homo sapiens, Kasumi 1, read-out: IC50 in cell proliferation assay
  IC50: 1290 nM
Homo sapiens, LC-2-ad, read-out: IC50 in cell proliferation assay
  IC50: 3280 nM
Homo sapiens, LNCaP-Clone-FGC, read-out: IC50 in cell proliferation assay
  IC50: 3090 nM
Homo sapiens, LS174T, read-out: IC50 in cell proliferation assay
  IC50: 3690 nM
Homo sapiens, LS-411N, read-out: IC50 in cell proliferation assay
  IC50: 5900 nM
Homo sapiens, LoVo, read-out: IC50 in cell proliferation assay
  IC50: 2700 nM
Homo sapiens, MCF7, read-out: IC50 in cell proliferation assay
  IC50: > 31600 nM
Homo sapiens, MDA-MB-231, read-out: IC50 in cell proliferation assay
  IC50: 4510 nM
Homo sapiens, MDA-MB-453, read-out: IC50 in cell proliferation assay
  IC50: > 31600 nM
Homo sapiens, MDA-MB-468, read-out: IC50 in cell proliferation assay
  IC50: 729 nM
Homo sapiens, MG-63, read-out: IC50 in cell proliferation assay
  IC50: 11 nM
Homo sapiens, MIA PaCa-2, read-out: IC50 in cell proliferation assay
  IC50: 5730 nM
Homo sapiens, MKN-45, read-out: IC50 in cell proliferation assay
  IC50: 2320 nM
Homo sapiens, MOLM-13, read-out: IC50 in cell proliferation assay
  IC50: 3540 nM
Homo sapiens, MOLT-4, read-out: IC50 in cell proliferation assay
  IC50: 3590 nM
Homo sapiens, MV4-11, read-out: IC50 in cell proliferation assay
  IC50: 2490 nM
Homo sapiens, MeWo, read-out: IC50 in cell proliferation assay
  IC50: 2810 nM
Homo sapiens, NCCIT, read-out: IC50 in cell proliferation assay
  IC50: 22 nM
Homo sapiens, NCI-H82, read-out: IC50 in cell proliferation assay
  IC50: 1400 nM
Homo sapiens, NCI-H460, read-out: IC50 in cell proliferation assay
  IC50: 2750 nM
Homo sapiens, NCI-H661, read-out: IC50 in cell proliferation assay
  IC50: 2440 nM
Homo sapiens, NCI-H716, read-out: IC50 in cell proliferation assay
  IC50: 2.34 nM
Homo sapiens, NCI-H1650, read-out: IC50 in cell proliferation assay
  IC50: 3300 nM
Homo sapiens, NCI-H1975, read-out: IC50 in cell proliferation assay
  IC50: 2970 nM
Homo sapiens, NCI-H2228, read-out: IC50 in cell proliferation assay
  IC50: 2770 nM
Homo sapiens, OVCAR-3, read-out: IC50 in cell proliferation assay
  IC50: 3130 nM
Homo sapiens, PFSK-1, read-out: IC50 in cell proliferation assay
  IC50: 3860 nM
Homo sapiens, RL95-2, read-out: IC50 in cell proliferation assay
  IC50: 2380 nM
Homo sapiens, RPMI-7951, read-out: IC50 in cell proliferation assay
  IC50: 2980 nM
Homo sapiens, RS4-11, read-out: IC50 in cell proliferation assay
  IC50: 1330 nM
Homo sapiens, Rec1, read-out: IC50 in cell proliferation assay
  IC50: 3530 nM
Homo sapiens, SHP77, read-out: IC50 in cell proliferation assay
  IC50: > 31600 nM
Homo sapiens, SK-BR-3, read-out: IC50 in cell proliferation assay
  IC50: 835 nM
Homo sapiens, SK-N-AS, read-out: IC50 in cell proliferation assay
  IC50: 2830 nM
Homo sapiens, SK-N-FI, read-out: IC50 in cell proliferation assay
  IC50: 3040 nM
Homo sapiens, SK-N-MC, read-out: IC50 in cell proliferation assay
  IC50: 2600 nM
Homo sapiens, SK-N-SH, read-out: IC50 in cell proliferation assay
  IC50: 2230 nM
Homo sapiens, SNU-5, read-out: IC50 in cell proliferation assay
  IC50: 5260 nM
Homo sapiens, SNU-16, read-out: IC50 in cell proliferation assay
  IC50: 2 nM
Homo sapiens, SNU-C2B, read-out: IC50 in cell proliferation assay
  IC50: > 31600 nM
Homo sapiens, SU-DHL-1, read-out: IC50 in cell proliferation assay
  IC50: 2800 nM
Homo sapiens, SU-DHL-6, read-out: IC50 in cell proliferation assay
  IC50: 5120 nM
Homo sapiens, SUP-T1, read-out: IC50 in cell proliferation assay
  IC50: 4280 nM
Homo sapiens, SW48, read-out: IC50 in cell proliferation assay
  IC50: 8070 nM
Homo sapiens, SW480, read-out: IC50 in cell proliferation assay
  IC50: 2960 nM
Homo sapiens, SW626, read-out: IC50 in cell proliferation assay
  IC50: 3560 nM
Homo sapiens, SW780, read-out: IC50 in cell proliferation assay
  IC50: 8 nM
Homo sapiens, SW837, read-out: IC50 in cell proliferation assay
  IC50: 6230 nM
Homo sapiens, SW872, read-out: IC50 in cell proliferation assay
  IC50: 2500 nM
Homo sapiens, SW900, read-out: IC50 in cell proliferation assay
  IC50: 1920 nM
Homo sapiens, SW948, read-out: IC50 in cell proliferation assay
  IC50: 1930 nM
Homo sapiens, SW982, read-out: IC50 in cell proliferation assay
  IC50: 1280 nM
Homo sapiens, SW-620, read-out: IC50 in cell proliferation assay
  IC50: 3490 nM
Homo sapiens, T98G, read-out: IC50 in cell proliferation assay
  IC50: 3540 nM
Homo sapiens, TCC-SUP, read-out: IC50 in cell proliferation assay
  IC50: 606 nM
Homo sapiens, THP-1, read-out: IC50 in cell proliferation assay
  IC50: 4230 nM
Homo sapiens, U2OS, read-out: IC50 in cell proliferation assay
  IC50: 2950 nM
Homo sapiens, U-87 MG, read-out: IC50 in cell proliferation assay
  IC50: 3120 nM
Homo sapiens, U-118-MG, read-out: IC50 in cell proliferation assay
  IC50: 4090 nM
Homo sapiens, UMUC3, read-out: IC50 in cell proliferation assay
  IC50: 1600 nM
Hs766T, read-out: IC50 in cell proliferation assay
  IC50: 5660 nM
L-82, read-out: IC50 in cell proliferation assay
  IC50: 4100 nM
Rh30, read-out: IC50 in cell proliferation assay
  IC50: 137 nM
